{"source": "patent US20210046139A1", "about": "“VEGETATION WATERS AND USES THEREOF” (FATTORIA LA VIALLA DI GIANNI, ANTONIO E BANDINO LO FRANCO - …, priority 2018, published 2021)", "assay_type_in_all_cases": "in vivo, Sprague-Dawley rats", "key": {"STZ diabetic rats [1]": {"test_system": "STZ diabetic rats", "test": "Motor and sensory nerve conduction velocity (tail, sciatic nerve)", "details": "end of administration (week 12), mean ± S.E.; for Conduction of sciatic nerve: sciatic motor NCV; for Sensitivity of sciatic nerve: sciatic sensory NCV; for Conduction of tail: tail motor NCV; for Sensitivity of tail: tail sensory NCV", "source_text": "A well-established model of streptozotocin (STZ)-induced diabetes in rats was used. Streptozotocin is a glucosamine derivative of nitrosurea which selectively destroys the β cells of the pancreatic islets and causes the development of diabetes with hyperglycemia and glycosuria. The model shares a series of characteristics with human diabetic complications at both a functional level and a biochemical level, such as, for example, a reduced nervous conduction, loss of small-diameter sensory nerve fibers in the skin, reduction in Na+ and K+-ATPase activity and early alterations of the thermal and mechanical nociceptive thresholds. In this study, diabetes was induced in 24 rats with a single intraperitoneal injection of 60 mg/kg of STZ dissolved in a sodium citrate buffer (pH 4.5). 24 rats injected only with the vehicle were used as non-diabetic controls. Hyperglycemia was confirmed by measuring glycosuria 72 hours after the injection of STZ using Keto-Diabur strips (KD-5000; Roche Diagnostics Spa, Italy). Only the animals with glycosuria >5% were classified as diabetic and included in the study. […] The animals were then randomized to receive the concentrate of the invention at an HT equivalent dose of 50 mg/kg/day or 50 mg/kg/day of pure HT in drinking water, according to the following treatment groups: The electrophysiological studies were performed using a portable electromyograph (Alpine Biomed ApS DK-2740, Denmark). The test on sciatic nerve conduction was performed by stimulating the sciatic nerve in the Achilles tendons and in the hollow above the sciatic nerve at the point of attachment of the tail with a single 2.2 ms supramaximal pulse using a bipolar electrode. A measurement of the motor action potential (CMAP) was obtained by placing the active electrode in subcutaneous tissue, in the first interosseous muscle of a toe of the hind paw, and the reference electrode in the fourth interosseous muscle of the same paw. The motor conduction velocity was calculated by subtracting the distal value from the proximal value taking the latency of the first negative peak of the proximal CMAP, measured in milliseconds, and the difference was […] the distance between the two stimulating electrodes, measured in millimeters. The sensory conduction velocity was determined using the plantar nerve. The sensory nerve action potential (SNAP) of the plantar nerve was measured by placing the recording electrode (needle) in subcutaneous tissue at the level of the […] next to the medial malleolus and the reference electrode proximally at about 1 cm. Circular stimulation electrodes were placed in the middle of the three middle toes of the hind paw, and stimulation was performed with a square pulse wave lasting 0.05 ms, with a barely supramaximal current intensity stimulus. The sensory conduction velocity was calculated by measuring the latency at the negative deviation of the peak potential and the distance between the stimulation electrode and the recording electrode. The motor and sensory conduction velocities are expressed as meters per second. The tail motor and sensory conduction test requires that the sensory nerve of the tail be stimulated by inserting the cathode 2 cm from the tip of the tail and the anode at 1 cm distally, using a square wave pulse lasting 0.05-ms at a supramaximal intensity. The SNAPs were recorded by inserting the active electrode 5 cm from the cathode and the reference electrode at 1 cm more proximally. The sensory nerve conduction velocity was calculated by measuring the latency at the peak of the first negative deflection and the distance between the stimulating and recording electrodes. The tail motor nerve conduction was obtained using a bipolar recording configuration. The active electrode was positioned 2 cm from the tip of the tail and the reference electrode at 1 cm distally. The motor nerve of the tail was initially stimulated at 5 cm proximally from the active recording electrode and, subsequently, proximally at 10 cm. […]"}, "STZ diabetic rats [2]": {"test_system": "STZ diabetic rats", "test": "Mechanical nociceptive threshold (Randall-Selitto test)", "details": "non-diabetic rats", "source_text": "A well-established model of streptozotocin (STZ)-induced diabetes in rats was used. Streptozotocin is a glucosamine derivative of nitrosurea which selectively destroys the β cells of the pancreatic islets and causes the development of diabetes with hyperglycemia and glycosuria. The model shares a series of characteristics with human diabetic complications at both a functional level and a biochemical level, such as, for example, a reduced nervous conduction, loss of small-diameter sensory nerve fibers in the skin, reduction in Na+ and K+-ATPase activity and early alterations of the thermal and mechanical nociceptive thresholds. In this study, diabetes was induced in 24 rats with a single intraperitoneal injection of 60 mg/kg of STZ dissolved in a sodium citrate buffer (pH 4.5). 24 rats injected only with the vehicle were used as non-diabetic controls. Hyperglycemia was confirmed by measuring glycosuria 72 hours after the injection of STZ using Keto-Diabur strips (KD-5000; Roche Diagnostics Spa, Italy). […] The animals were then randomized to receive the concentrate of the invention at an HT equivalent dose of 50 mg/kg/day or 50 mg/kg/day of pure HT in drinking water, according to the following treatment groups: The mechanical nociceptive threshold (Randall-Selitto test) was assessed using an electromechanical apparatus (Ugo Basile, Varese, Italy). […]"}, "STZ diabetic rats [3]": {"test_system": "STZ diabetic rats", "test": "Eye examination and cataract classification", "source_text": "A well-established model of streptozotocin (STZ)-induced diabetes in rats was used. Streptozotocin is a glucosamine derivative of nitrosurea which selectively destroys the β cells of the pancreatic islets and causes the development of diabetes with hyperglycemia and glycosuria. The model shares a series of characteristics with human diabetic complications at both a functional level and a biochemical level, such as, for example, a reduced nervous conduction, loss of small-diameter sensory nerve fibers in the skin, reduction in Na+ and K+-ATPase activity and early alterations of the thermal and mechanical nociceptive thresholds. In this study, diabetes was induced in 24 rats with a single intraperitoneal injection of 60 mg/kg of STZ dissolved in a sodium citrate buffer (pH 4.5). 24 rats injected only with the vehicle were used as non-diabetic controls. Hyperglycemia was confirmed by measuring glycosuria 72 hours after the injection of STZ using Keto-Diabur strips (KD-5000; Roche Diagnostics Spa, Italy). Only the animals with glycosuria >5% were classified as diabetic and included in the study. […] The animals were then randomized to receive the concentrate of the invention at an HT equivalent dose of 50 mg/kg/day or 50 mg/kg/day of pure HT in drinking water, according to the following treatment groups: The opacity of the eyes and of the crystalline lenses was examined every week starting from the seventh/eighth week after the induction of diabetes, the period in which, in the STZ diabetic model, cataracts manifest themselves. Cataract severity was classified using a validated semi-quantitative scale. In particular, the following assessment scheme and the following scores were used: [table] The opacity index was calculated to quantitatively assess the degree of opacity of the crystalline lens by means of the following formula: [formula]"}, "[4]": {"details": "non-diabetic control rats (CTRL)"}}}
{"smiles": "OCCc1ccc(O)c(O)c1", "note": "[HT, hydroxytyrosol]", "values": [{"measurement": "Conduction of sciatic nerve", "setting": "STZ diabetic rats [1]; STZ diabetic rats", "value": "40.3 ± 0.7", "unit": "m/sec."}, {"measurement": "Conduction of sciatic nerve", "setting": "STZ diabetic rats [1]; [4]", "value": "46.5 ± 1.5", "unit": "m/sec."}, {"measurement": "Sensitivity of sciatic nerve", "setting": "STZ diabetic rats [1]; STZ diabetic rats", "value": "33.7 ± 0.9", "unit": "m/sec."}, {"measurement": "Sensitivity of sciatic nerve", "setting": "STZ diabetic rats [1]; [4]", "value": "39.0 ± 0.9", "unit": "m/sec."}, {"measurement": "Conduction of tail", "setting": "STZ diabetic rats [1]; STZ diabetic rats", "value": "37.4 ± 0.9", "unit": "m/sec."}, {"measurement": "Conduction of tail", "setting": "STZ diabetic rats [1]; [4]", "value": "36.1 ± 1.7", "unit": "m/sec."}, {"measurement": "Sensitivity of tail", "setting": "STZ diabetic rats [1]; STZ diabetic rats", "value": "30.8 ± 0.8", "unit": "m/sec."}, {"measurement": "Sensitivity of tail", "setting": "STZ diabetic rats [1]; [4]", "value": "34.7 ± 1.3", "unit": "m/sec."}, {"measurement": "effect on mechanical nociceptive threshold", "setting": "STZ diabetic rats [2]", "value": "no effect"}, {"measurement": "diabetic rats in the fourth cataract phase", "setting": "STZ diabetic rats [3]; end of the fifth week, untreated 67%", "value": 30, "unit": "%"}, {"measurement": "eyes with cataracts at stage 0", "setting": "STZ diabetic rats [3]; end of the treatments, untreated none", "value": 3, "unit": "eyes"}, {"measurement": "opacity index", "setting": "STZ diabetic rats [3]; end of treatment, untreated 5.3", "value": 2.0}]}
